Laboratory results from PMC4333385 (Nucleic Acids Research, 2014).
Values belong to the compound of their own block, whether it stands above or below them.

Tests used:
[1] = biological target: T1, E. coli RecQ helicase (Escherichia coli, UniProt P15043); assay: quenched-flow ATP hydrolysis, global fit; type: biochemical; details: SF50 buffer pH 7.5, 5 mM MgCl2, 50 mM NaCl, 25 °C; gamma-32P-ATP; read-out: DNA-free RecQ
Source text: quenched-flow ATP hydrolysis, global fit on E. coli RecQ helicase

[2] = biological target: T1, E. coli RecQ helicase; assay: stopped-flow FRET binding kinetics; details: association rate constant, Kd not given, SF50 buffer pH 7.5, 5 mM MgCl2, 25 °C, labelled compound
Source text: stopped-flow FRET binding kinetics on E. coli RecQ helicase

[3] = biological target: T1, E. coli RecQ helicase; assay: stopped-flow FRET binding kinetics (k-1/k1); details: read-out: DNA-free RecQ
Source text: stopped-flow FRET binding kinetics (k-1/k1) on E. coli RecQ helicase

T1 sequence (P15043 2-609): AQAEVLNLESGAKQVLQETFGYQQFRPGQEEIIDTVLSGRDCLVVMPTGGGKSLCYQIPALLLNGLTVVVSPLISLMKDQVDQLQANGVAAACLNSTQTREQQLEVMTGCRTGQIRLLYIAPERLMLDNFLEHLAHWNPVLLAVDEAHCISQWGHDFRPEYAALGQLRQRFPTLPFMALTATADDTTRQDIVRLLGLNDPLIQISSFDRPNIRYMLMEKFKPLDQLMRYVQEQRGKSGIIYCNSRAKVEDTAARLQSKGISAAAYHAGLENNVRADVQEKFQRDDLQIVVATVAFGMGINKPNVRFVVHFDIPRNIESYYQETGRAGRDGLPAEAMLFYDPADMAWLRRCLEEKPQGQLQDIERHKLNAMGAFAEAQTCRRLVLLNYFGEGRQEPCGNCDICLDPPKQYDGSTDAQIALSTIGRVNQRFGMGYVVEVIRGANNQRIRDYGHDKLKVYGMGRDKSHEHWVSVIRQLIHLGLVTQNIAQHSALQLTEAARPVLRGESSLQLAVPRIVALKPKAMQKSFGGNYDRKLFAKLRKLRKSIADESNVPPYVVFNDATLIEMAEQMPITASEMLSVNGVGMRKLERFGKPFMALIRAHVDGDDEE

Kd [1]: 120 ± 30 µM
Compound: Nc1ncnc2c1ncn2[C@@H]1O[C@H](COP(=O)(O)OP(=O)(O)OP(=O)(O)O)[C@@H](O)[C@H]1O [ATP]

DNA-free RecQ [2]: 4.5 ± 0.5 µM⁻¹ s⁻¹
Compound: CNc1ccccc1C(=O)O[C@H]1C[C@H](n2cnc3c(N)ncnc32)O[C@@H]1COP(=O)(O)OP(=O)(O)O [mdADP]

Kd [3]: 15 ± 2 µM
Compound: CNc1ccccc1C(=O)O[C@H]1C[C@H](n2cnc3c(N)ncnc32)O[C@@H]1COP(=O)(O)OP(=O)(O)OP(=O)(O)O [mdATP, 3′-(N-methylanthraniloyl)-2′-deoxy-ATP]
